These results are taken from paper PMC8142146 (Bioorganic chemistry, 2020).

Like-named read-outs stand apart in the source and are kept apart here.

Assay [1] has as its target T1, PARP1 (Homo sapiens, UniProt P09874). In words: in vitro PARP1 enzyme assay. The settings on record: for fold improvement in PARP1 activity compared to lead 4: vs unsubstituted lead 4 (IC50 = 5.8 μM); for inhibition at 5 µM: read-out: PARP1 inhibition at 5 μM.
Assay [2] addresses T1, PARP1. The following applies: read-out: PARP1 IC50, literature value; cited from earlier work.
The target in assay [3] is T1, PARP1. The assay can be described thus: BPS PARP1 Chemiluminescent Activity Assay Kit. In kind it is biochemical.

T1 sequence (P09874 whole entry): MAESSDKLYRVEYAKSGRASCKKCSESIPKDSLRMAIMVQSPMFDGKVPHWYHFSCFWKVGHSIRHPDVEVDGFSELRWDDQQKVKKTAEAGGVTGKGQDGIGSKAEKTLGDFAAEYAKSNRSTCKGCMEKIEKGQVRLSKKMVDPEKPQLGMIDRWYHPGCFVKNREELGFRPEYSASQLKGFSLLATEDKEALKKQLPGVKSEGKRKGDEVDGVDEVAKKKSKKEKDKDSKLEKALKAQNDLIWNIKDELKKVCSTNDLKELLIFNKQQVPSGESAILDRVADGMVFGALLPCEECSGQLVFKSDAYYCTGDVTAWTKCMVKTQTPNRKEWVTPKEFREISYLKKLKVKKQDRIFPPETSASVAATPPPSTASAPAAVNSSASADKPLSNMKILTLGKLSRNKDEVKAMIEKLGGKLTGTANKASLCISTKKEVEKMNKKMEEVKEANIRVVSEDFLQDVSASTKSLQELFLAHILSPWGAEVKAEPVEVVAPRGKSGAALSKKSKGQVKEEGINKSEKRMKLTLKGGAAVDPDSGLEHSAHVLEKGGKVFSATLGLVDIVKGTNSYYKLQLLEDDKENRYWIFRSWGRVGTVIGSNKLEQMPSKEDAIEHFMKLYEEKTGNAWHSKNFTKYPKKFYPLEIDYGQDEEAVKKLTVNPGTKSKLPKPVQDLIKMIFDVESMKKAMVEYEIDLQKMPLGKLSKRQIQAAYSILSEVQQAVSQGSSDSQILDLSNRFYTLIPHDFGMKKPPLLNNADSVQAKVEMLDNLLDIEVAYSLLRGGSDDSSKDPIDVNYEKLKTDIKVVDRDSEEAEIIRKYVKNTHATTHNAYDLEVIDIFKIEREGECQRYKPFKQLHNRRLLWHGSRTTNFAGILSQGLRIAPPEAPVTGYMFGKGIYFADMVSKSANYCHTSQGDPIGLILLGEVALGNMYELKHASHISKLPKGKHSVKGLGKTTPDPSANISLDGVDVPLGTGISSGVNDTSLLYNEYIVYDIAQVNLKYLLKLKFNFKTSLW

Consider `CS(=O)(=O)OC[C@@H]1COc2cccc(C(N)=O)c2O1` [Compound 21b, (S)-(8-Carbamoyl-2,3-dihydrobenzo[b][1,4]dioxin-2-yl)methyl methanesulfonate], for which the “fold improved PARP1 activity over 25a” value on PARP1 [1] (vs hydroxymethyl precursor 25a) was ~ 10 fold. Further, the “fold improvement in PARP1 activity compared to lead 4” value at PARP1 [1] is reported as ~ 8 fold. Turning to `CN1CCN(C[C@H]2COc3c(cccc3C(N)=O)O2)CC1` [Compound 22a, (S)-2-((4-Methylpiperazin-1-yl)methyl)-2,3-dihydrobenzo[b][1,4]dioxine-5-carboxamide], on PARP1 [1], the inhibition at 5 µM is < 20%. As to `CN1CCN(C[C@@H]2COc3cccc(C(N)=O)c3O2)CC1` [Compound 22b, (R)-3-((4-Methylpiperazin-1-yl)methyl)-2,3-dihydrobenzo[b][1,4]dioxine-5-carboxamide], the inhibition at 5 µM on PARP1 [1] was < 20%. Consider `NC(=O)c1cccc2c1OC[C@H](CN1CCN(c3ncccn3)CC1)O2` [Compound 23a, (S)-2-((4-(Pyrimidin-2-yl)piperazin-1-yl)methyl)-2,3-dihydrobenzo[b][1,4]dioxine-5-carboxamide], for which the inhibition at 5 µM at PARP1 [1] is < 20%.

`NC(=O)c1cccc2c1O[C@H](CN1CCN(c3ncccn3)CC1)CO2` [Compound 23b, (R)-3-((4-(Pyrimidin-2-yl)piperazin-1-yl)methyl)-2,3-dihydrobenzo[b][1,4]dioxine-5-carboxamide]: the inhibition at 5 µM at PARP1 [1] is < 20%. As to `CS(=O)(=O)OC[C@H]1COc2cccc(C(N)=O)c2O1` [Compound 26b, (R)-(8-Carbamoyl-2,3-dihydrobenzo[b][1,4]dioxin-2-yl)methyl methanesulfonate], the “fold improvement in PARP1 activity compared to lead 4” value at PARP1 [1] was ~ 5 fold. Regarding `CN1CCN(C[C@@H]2COc3c(cccc3C(N)=O)O2)CC1` [Compound 27a, (R)-2-((4-Methylpiperazin-1-yl)methyl)-2,3-dihydrobenzo[b][1,4]dioxine-5-carboxamide], the inhibition at 5 µM at PARP1 [1] is < 20%. The same measure, in the same setting: for `CN1CCN(C[C@H]2COc3cccc(C(N)=O)c3O2)CC1` [Compound 27b, (S)-3-((4-Methylpiperazin-1-yl)methyl)-2,3-dihydrobenzo[b][1,4]dioxine-5-carboxamide] the value was < 20%; for `NC(=O)c1cccc2c1OC[C@@H](CN1CCN(c3ncccn3)CC1)O2` [Compound 28a, (R)-2-((4-(Pyrimidin-2-yl)piperazin-1-yl)methyl)-2,3-dihydrobenzo[b][1,4]dioxine-5-carboxamide], < 20%. On the same count and under the same terms, as for `NC(=O)c1cccc2c1O[C@@H](CN1CCN(c3ncccn3)CC1)CO2` [Compound 28b, (S)-3-((4-(Pyrimidin-2-yl)piperazin-1-yl)methyl)-2,3-dihydrobenzo[b][1,4]dioxine-5-carboxamide], the figure is < 20%. As to `NC(=O)c1cccc2c1OCO2` [Compound 31, Benzo[d][1,3]dioxole-4-carboxamide], on PARP1 [2], the IC50 is 5300 nM. Turning to `NC(=O)c1cccc2c1OCCCO2` [Compound 32, 3,4-Dihydro-2H-benzo[b][1,4]dioxepine-6-carboxamide], at PARP1 [1] (read-out: PARP1 inhibition at 2.5 μM), the inhibition at 2.5 µM is 15%.

On to `NC(=O)c1cccc2c1OCCN2` [Compound 44, 3,4-Dihydro-2H-benzo[b][1,4]oxazine-8-carboxamide], for which the “fold less potent than 4 (PARP1)” value on PARP1 [1] (vs 4) is ~ 2 fold. Regarding `NC(=O)c1cccc2c1OCC(=O)N2` [Compound 45, 3-Oxo-3,4-dihydro-2H-benzo[b][1,4]oxazine-8-carboxamide], the “fold enhanced PARP1 activity in comparison to 44” value at PARP1 [1] (vs 44) is given as 15 fold. At PARP1 [3], `NC(=O)c1cccc2c1O/C(=C\c1ccc(C(=O)O)cc1)C(=O)N2` [Compound 50, (Z)-2-(4-Carboxybenzylidene)-3-oxo-3,4-dihydro-2H-benzo[b][1,4]oxazine-8-carboxamide] had an IC50 of 420 ± 46 nM.
